Laboratory results: US8247557B2, “IAP inhibitors” (Genentech, Inc., priority 2005, dated 2012)

Biological target: T1, MLXBIR3SG (Homo sapiens, UniProt Q96CA5, S150G)
T1 construct: His6 tag (MGSSHHHHHH, followed by linker with LVPRGS thrombin site) (N)
T1 sequence (Q96CA5 with tags, fused parts or gaps S150G): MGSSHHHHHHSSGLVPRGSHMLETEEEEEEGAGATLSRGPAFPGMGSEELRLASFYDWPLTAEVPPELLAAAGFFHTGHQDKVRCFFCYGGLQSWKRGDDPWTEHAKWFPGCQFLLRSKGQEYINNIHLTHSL
Assay: Fluorescence Polarization Peptide Binding Assay (competition with AVP-diPhe-FAM probe)
Conditions: MLXBIR3SG at 30 nM, 5 nM AVP-diPhe-FAM probe, Ki determined from IC50 values, unit inferred
Protocol: In the following experiments was used a chimeric BIR domain referred to as MLXBIR3SG in which 11 of 110 residues correspond to those found in XIAP-BIR3, while the remainder correspond to ML-IAP-BIR. […] The improved caspase-9 inhibition of the chimeric BIR domain MLXBIR3SG has been correlated with increased inhibition of doxorubicin-induced apoptosis when transfected into MCF7 cells.
Polarization experiments were performed on an Analyst HT 96-384 (Molecular Devices Corp.) according to the procedure of Keating, S. M., Marsters, J, Beresini, M., Ladner, C., Zioncheck, K., Clark, K., Arellano, F., and Bodary., S. (2000) in Proceedings of SPIE: In Vitro Diagnostic Instrumentation (Cohn, G. E., Ed.) pp 128-137, Bellingham, Wash. Samples for fluorescence polarization affinity measurements were prepared by addition of 1:2 serial dilutions starting at a final concentration of 5 μM of MLXBIR3SG in polarization buffer (50 mM Tris [pH 7.2], 120 mM NaCl, 1% bovine globulins 5 mM DTT and 0.05% octylglucoside) to 5-carboxyflourescein-conjugated AVPdi-Phe-NH2 (AVP-diPhe-FAM) at 5 nM final concentration.
The reactions were read after an incubation time of 10 minutes at room temperature with standard cut-off filters for the fluorescein fluorophore (λex=485 nm; λem=530 nm) in 96-well black HE96 plates (Molecular Devices Corp.). Fluorescence values were plotted as a function of the protein concentration, and the IC50s were obtained by fitting the data to a 4-parameter equation using Kaleidograph software (Synergy software, Reading, Pa.). Competition experiments were performed by addition of the MLXBIR3SG at 30 nM to wells containing 5 nM of the AVP-diPhe-FAM probe as well as 1:3 serial dilutions of antagonist compounds starting at a concentration of 300 μM in the polarization buffer. Samples were read after a 10-minute incubation. Fluorescence polarization values were plotted as a function of the antagonist concentration, and the IC50 values were obtained by fitting the data to a 4-parameter equation using Kaleidograph software (Synergy software, Reading, Pa.). Inhibition constants (Ki) for the antagonists were determined from the IC50 values.

Structure (SMILES)	Ki [µM]
C[C@H](NCCO)C(=O)N[C@H](C(=O)N1CCC[C@H]1c1nc2c(-c3ccccc3)nccc2s1)c1ccccc1 [compound 54]	0.0556
C[C@H](NCCO)C(=O)N[C@H](C(=O)N1CCC[C@H]1c1nc2c(-c3ccccc3)ccnc2s1)C1CCCCC1 [compound 60]	0.145
C[C@@H](NCCO)C(=O)N[C@H](C(=O)N1CCC[C@H]1c1nc2c(-c3ccccc3)nccc2s1)C1CCCCC1 [compound 48]	7.87
CN[C@@H](C)C(=O)N[C@H](C(=O)N1CCC[C@H]1c1nc2c(-c3ccccc3)ncnc2s1)C1CCN(C(=O)COC)CC1 [compound 56]	0.0338
